In publication PMC9354042, “Discovery of BRAF/HDAC Dual Inhibitors Suppressing Proliferation of Human Colorectal Cancer Cells” (Frontiers in Chemistry, 2022):
Read-outs that look alike come from different tables or passages of the source.

Columns and labels:
[1] = biological target: T1, HDAC1 (Homo sapiens, UniProt Q13547); assay: HDAC1 fluorescent-based enzymatic activity assay; format: biochemical
T1 construct: purchased BPS Bioscience
Method: (§1) The purified recombinant Human HDACs and their corresponding substrates were purchased from BPS Bioscience (BPS Bioscience Inc., United States). The assays were carried out in a 384-well format using the BPS fluorescent–based HDAC activity assay according to the manufacturer’s protocol. In brief, […] of the HDAC reaction mixture was composed of HDAC assay buffer, […] BSA, serial diluted test compounds, appropriate concentration of HDACs, and […] fluorogenic substrate, the mixture was incubated at 37°C for 60 min, and then stopped by the addition of developer containing trypsin and TSA. After 20 min of incubation, the fluorescence was detected at the excitation wavelength of 360 nm and the emission wavelength of 460 nm using the EnVision Multilabel Reader (PerkinElmer Inc., United States). The analytical software, GraphPad Prism 5.0 (GraphPad Software, Inc., United States) was used to generate IC50 value via non-linear regression analysis.

[2] = biological target: T2, HDAC7 (Homo sapiens, UniProt Q8WUI4); assay: HDAC7 fluorescent-based enzymatic activity assay; format: biochemical; conditions: Table 3 isoform panel; read-out: Enzyme inhibition HDAC7 (Class IIA)
T2 construct: purchased BPS Bioscience
T2 sequence (Q8WUI4 1-952): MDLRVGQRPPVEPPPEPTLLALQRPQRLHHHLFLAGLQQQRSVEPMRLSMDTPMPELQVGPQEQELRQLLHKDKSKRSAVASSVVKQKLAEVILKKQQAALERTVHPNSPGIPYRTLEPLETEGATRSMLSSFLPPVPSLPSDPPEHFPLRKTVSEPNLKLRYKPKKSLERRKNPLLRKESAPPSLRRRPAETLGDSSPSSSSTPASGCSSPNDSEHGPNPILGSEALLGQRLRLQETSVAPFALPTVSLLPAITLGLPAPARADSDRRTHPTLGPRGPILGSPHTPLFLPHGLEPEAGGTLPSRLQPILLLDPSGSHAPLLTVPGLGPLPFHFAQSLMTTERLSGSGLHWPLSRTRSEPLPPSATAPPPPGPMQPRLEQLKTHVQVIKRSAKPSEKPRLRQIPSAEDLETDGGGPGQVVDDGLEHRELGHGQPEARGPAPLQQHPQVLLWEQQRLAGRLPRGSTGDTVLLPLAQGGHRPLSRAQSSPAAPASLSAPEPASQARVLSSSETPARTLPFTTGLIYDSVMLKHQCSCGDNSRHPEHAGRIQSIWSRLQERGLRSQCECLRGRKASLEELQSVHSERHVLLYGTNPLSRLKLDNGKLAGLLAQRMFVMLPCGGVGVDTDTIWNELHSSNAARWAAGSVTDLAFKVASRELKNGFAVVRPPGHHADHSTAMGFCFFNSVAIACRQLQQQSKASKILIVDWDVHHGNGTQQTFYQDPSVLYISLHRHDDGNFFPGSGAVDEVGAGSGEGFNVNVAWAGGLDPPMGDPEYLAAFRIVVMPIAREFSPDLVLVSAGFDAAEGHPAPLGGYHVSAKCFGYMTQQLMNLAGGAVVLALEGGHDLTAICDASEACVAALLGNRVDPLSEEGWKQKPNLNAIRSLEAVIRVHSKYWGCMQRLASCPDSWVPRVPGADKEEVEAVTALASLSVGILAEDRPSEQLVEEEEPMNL
Method: as §1

[3] = system: Ac-histone H3, Ac-α-tubulin, p-ERK in HT-29 cells; assay: Western blot analysis of HDAC and RAF pathway in HT-29 cells; format: cell-based, human
Method: FIGURE 3 Characterization of dual inhibition of HDAC and RAF pathway. Western blot analysis of 14b in HCT116 cells (A) and in HT-29 cells (B). Cells were treated with 0 μM, 0.12 μM, 0.37 μM, 1.1 μM, 3.3 μM, and 10 μM of drugs and incubated for 6 h. The cell lysis was subjected to Western blot analysis.
The cells were treated with various concentrations of 14b for 6 h. Then, the cells were lysed using 1×SDS sample lysis buffer (CST recommended) with protease and phosphatase inhibitors. Cell lysates were loaded and electrophoresed onto 8–12% SDS-PAGE gel, and then the separated proteins were transferred to a PVDF film. The film was blocked with 5% BSA (Sigma-Aldrich, St. Louis, MO, United States) in a TBS solution containing 0.5% Tween-20 for 4 h at room temperature, then incubated with the corresponding primary antibody (1:1000–1:200) overnight at 4°C. After washing with TBST, HRP-conjugated secondary antibody was incubated for 2 h. The protein signals were visualized by the ECL Western Blotting Detection Kit (Thermo Scientific, Grand Island, NY, United States), and detected with Amersham Imager 600 system (GE, Boston, MA, United States).

T1 sequence (Q13547 whole entry): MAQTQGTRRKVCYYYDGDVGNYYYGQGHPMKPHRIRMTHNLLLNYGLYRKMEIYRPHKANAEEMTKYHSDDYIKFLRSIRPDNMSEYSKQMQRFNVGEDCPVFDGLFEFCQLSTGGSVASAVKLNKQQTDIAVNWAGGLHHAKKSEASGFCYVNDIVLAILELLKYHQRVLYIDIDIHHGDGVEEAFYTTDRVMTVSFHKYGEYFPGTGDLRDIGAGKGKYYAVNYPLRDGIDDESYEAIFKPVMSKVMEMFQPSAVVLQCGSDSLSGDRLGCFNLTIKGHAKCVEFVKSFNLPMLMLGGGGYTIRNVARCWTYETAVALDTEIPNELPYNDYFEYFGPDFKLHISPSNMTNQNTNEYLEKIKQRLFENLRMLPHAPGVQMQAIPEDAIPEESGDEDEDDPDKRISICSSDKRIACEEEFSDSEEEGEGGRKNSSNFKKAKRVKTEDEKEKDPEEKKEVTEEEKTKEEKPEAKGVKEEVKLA

Q: With `CC(C)(C)c1nc(-c2cccc(NS(=O)(=O)c3c(F)cccc3F)c2F)c(-c2ccnc(NCCCCCCC(=O)NO)n2)s1` [14b, 7-{[4-(2-(Tert-Butyl)-4-(3-((2,6-Difluorophenyl)Sulfonamido)-2-Fluorophenyl)Thiazol-5-yl)Pyrimidin-2-yl]Amino}-N-Hydroxyheptanamide] as the molecule, how does the IC50 ([1]; Table 1, read-out: Enzymatic IC50 HDAC1) read?
A: The IC50 was 494 nM.

Q: And the IC50 ([1]; Table 3 isoform panel, read-out: Enzyme inhibition HDAC1 (Class I))?
A: The IC50 was 493 nM.

Q: And the IC50 [2]?
A: The IC50 was 43300 nM.

Q: What about the “expression of BRAF” value [3] of the same molecule?
A: The value was “did not affect the expression of BRAF itself”.

Q: And the “acetylated histone H3 (Ac-histone H3)” value ([3]; 0.12-10 μM, 6 h)?
A: Its value is “upregulated”.

Q: And the “acetylated α-tubulin (Ac-α-tubulin)” value ([3]; 0.12-10 μM, 6 h)?
A: The value was “upregulated”.

Q: And the “phosphorylation of ERK (p-ERK)” value ([3]; 0.12-10 μM, 6 h)?
A: The value was “significantly inhibited at the lowest concentration of 0.12 μM”.
